Measurements: patent US6399654B1, “Biflavanoids and derivatives thereof as antiviral agents” (priority 1995, dated 2002)
≈ marks a conversion by molar mass, not a printed value. Where “and” joins values, the source holds several entries; their conditions need not be identical. Equal values may be shown once. Read-outs that look alike come from different tables or passages of the source. Marks after values point to notes of the source that are not given here.

Tests used:
Adenovirus Type 5 [1] = assay: Adenovirus type 5 neutral red dye uptake in A549 cells; type: cell-based; settings: Human mastadenovirus C, A549, read-out: Neutral Red EC50
Influenza B Panama/45/90 [2] = assay: microbe, parasite or virus in culture; type: cell-based; settings: Influenza B virus, MDCK, read-out: Neutral Red EC50
in vitro [3] = settings: African green monkey
in vitro [4] = settings: dog
in vitro [5] = settings: human
HIV-1 RT = molecular target: T1, HIV-1 RT (Human immunodeficiency virus type 1 group M subtype B, UniProt P03366); assay: Anti-HIV-1 RT assay (recombinant enzyme); type: biochemical
T1 construct: made in house; host or cells: Escherichia coli

[6] = tested on: Influenza A (H1N1) Texas/36/91; assay: microbe, parasite or virus in culture; type: cell-based, influenza A virus; settings: Influenza A virus, read-out: CPE Inhibition EC50
[7] = tested on: Influenza A (H1N1) Texas/36/91; assay: microbe, parasite or virus in culture; type: cell-based, influenza A virus; settings: Influenza A virus, read-out: Neutral Red EC50
in vitro [8] = settings: African green monkey, Neutral Red IC50 (cytotoxic)
[9] = tested on: Respiratory Syncytial Virus; assay: microbe, parasite or virus in culture; type: cell-based; settings: human respiratory syncytial virus, MA104; read-out: Neutral Red EC50
[10] = tested on: Parainfluenza Type 3 Virus; assay: organism not typed; type: cell-based
Adenovirus Type 5 [11] = assay: microbe, parasite or virus in culture; type: cell-based; settings: Human mastadenovirus C, A549, read-out: CPE Inhibition EC50
HCMV = HCMV CPE inhibition in HFF cells
[12] = tested on: African green monkey kidney (MA-104) cells
HSV-1 = HSV-1 CPE inhibition in HFF cells
VZV = VZV plaque reduction assay in HFF cells
in vitro [13] = settings: dog, Neutral Red IC50 (cytotoxic)
[14] = tested on: Influenza A (H3N2) Beijing/32/92; assay: microbe, parasite or virus in culture; type: cell-based, influenza A virus; settings: Influenza A virus, read-out: Neutral Red EC50
Influenza B Panama/45/90 [15] = assay: microbe, parasite or virus in culture; type: cell-based; settings: Influenza B virus, MDCK, read-out: CPE Inhibition EC50
Measles Virus [16] = assay: Measles virus neutral red dye uptake in BSC-1 cells; type: cell-based; settings: Measles morbillivirus, BSC-1
Hepatitis B Virus (HBV) = assay: Inhibition of HBV replication in 2.2.15 cells, extracellular (virion) HBV DNA; settings: Hepatitis B virus, 216 h;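 also: extracellular virion HBV DNA in culture medium measured by slot blot hybridization with a 32P-labeled HBV probe, quantified against HBV DNA standards, after 9 days of daily dosing, compared with day 0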
Protocol: Test compounds were added daily for a nine continuous day period; the culture medium was collected and stored for analysis of extracellular (virion) HBV DNA after 0, 3, 6, and 9 days of treatment. The treated cells were lysed 24 hours following day 9 of treatment for the analysis of intracellular HBV genomic forms. The overall levels of HBV DNA (both extracellular and intracellular DNA) and the relative rate of HBV replication (intracellular DNA) were analyzed quantitatively. The analysis was performed using blot hybridization techniques and [^32P]-labeled HBV-specific probes. The HBV DNA levels were measured by comparison to known amounts of HBV DNA standards applied to every nitrocellulose membrane (gel or slot blot). An AMBIS beta scanner, which measures the radioactive decay of the hybridized probes directly from the nitrocellulose membranes, was used for the quantitative analysis. Standard curves, generated by multiple analyses, were used to correlate CPM measurements made by the beta scanner with relative levels of target HBV DNA. The levels of HBV virion DNA released into the culture medium were analyzed by a slot blot hybridization procedure. HBV DNA levels were then compared to those at day 0 to determine the effect of the test compound. A known positive drug was evaluated in parallel with test compounds in each test.
Determination of therapeutic concentrations (EC50 and EC90) and toxicity concentrations (IC50) were determined as previously described (90). Stock solutions of text drugs were prepared in DMSO. Culture medium was changed daily and analyzed for extracellular HBV DNA after nine days of continuous drug exposure. Extracellular HBV DNA was extracted from the culture media and analyzed by a slot blot hydridization technique, using a ^32P-labeled Eco RI HBV DNA fragment, as previously described (91), and quantitated via comparison to HBV standards on a nitrocellulose filter, using an AMBIS beta scanner. Toxicity was determined by measuring inhibition of neutral red dye uptake. […] Effective concentration values for individual agents are the mean of six cultures per concentration point. Toxicity values are the mean of three cultures per concentration point.

HSV-2 = HSV-2 CPE inhibition in HFF cells
Measles Virus [17] = assay: microbe, parasite or virus in culture; type: cell-based; settings: Measles morbillivirus
in vitro [18] = settings: human; remark: listed apart in the source
HIV-1 (strain LAV-1) = assay: microbe, parasite or virus in culture; type: cell-based
[19] = tested on: Influenza A (H3N2) Beijing/32/92; assay: microbe, parasite or virus in culture; type: cell-based, influenza A virus; settings: Influenza A virus, read-out: CPE Inhibition EC50
[20] = tested on: Parainfluenza Type 3 Virus; assay: organism not typed; type: cell-based; settings: MA104, read-out: Neutral Red EC50
[21] = tested on: Madin Darby canine kidney (MDCK) cells; settings: dog
[22] = tested on: Influenza A (A/NWS/33 (H1N1)); assay: Influenza A virus infection in mice; type: in vivo, BALB/c mice
Protocol: Animals: Female 13-15 g specific pathogen-free BALB/c mice were obtained form Simonsen Laboratories (Gilroy, Calif.). They were quarantined 24 h prior to use, and maintained on Wayne Lab Blox and tap water. After being infected, their drinking water contained 0.006% oxytetracycline (Pfizer, New York, N.Y.) to control possible secondary bacterial infections.
Virus: A/NWS/33 (H1N1) was obtained from K. W. Cochran, Univ. of Michigan (Ann Arbor, Mich.). A virus pool was prepared in MDCK cells; this was titrated in mice, ampuled, and stored at −80° C. until used.
Compounds: Robustaflavone was stored at room temperature until used. Ribavirin, used as a positive control, was obtained from ICN Pharmaceuticals (Costa Mesa, Calif.). Vehicles considered included DMSO (Sigma Chemical Co., St. Louis, Mo.), DMF (Sigma), PEG M. W. 200 (Aldrich Chemical Co. Milwaukee, Wis.), 0.4% CMC (Sigma) and 1-methyl-2-pyrrolidinone (MPD, Aldrich).
Arterial Oxygen Saturation (SaO2) Determinations: SaO2 was determined using the Ohmeda Blox 3740 pulse oximeter (Ohmeda, Louisville, Ohio)). The ear probe attachment was used, the probe placed on the thigh of the animal, with the slow instrument mode selected. Readings were made after a 30 second stabilization time on each animal. Use of this device for measuring effects of influenza virus on arterial oxygen saturation have been described.^72
Lung Virus Determinations: Each mouse lung was homogenized and varying dilutions assayed in triplicate for infectious virus in MDCK cells as described previously.^73
4. Effect of robustaflavone in CMC or in DMSO on influenza virus infection in mice. In the study with CMC, robustaflavone was used in dosages of 200 and 100 mg/kg/day; using DMSO vehicle, the dosages were 75 and 37.5 mg/kg/day, with the compound administered i.p. twice daily for 5 days beginning 4 h pre-virus exposure. The mice were used in each dose to monitor effects on SaO2 and death; from an additional group of similarly infected and treated mice, 3 animals were killed on days 3, 5, 7 and 9 to assay for lung score (0=normal, 4=maximal consolidation), weight, and virus titer. Three to four mice were used as toxicity controls, which were weighed prior to treatment and again 18 h after treatment termination, and deaths noted daily. […] Three sets of virus controls were used: Infected-untreated, infected-treated with CMC only, and infected-treated with DMSO only. Twenty animals were used in each of these control groups to monitor SaO2 and death, with 3 additional mice taken in parallel with treated animals to determine effects on lung consolidation and virus titer. Two sets of normal controls were used; one group of three mice was weighed and held in parallel with the toxicity controls. From the second group three mice were killed on days 3 and 9 for comparison of lung score and weight.
Statistical Evaluation: Increase in survivor number was evaluated using chi square analysis with Yates' correction. Mean survival time increases, virus titer and SaO2 value differences were analyzed by t-test. Lung consolidation scores were evaluated by ranked sum analysis.

in vitro [23] = settings: African green monkey; remark: listed apart in the source
in vitro [24] = settings: African green monkey; remark: listed apart in the source
[25] = tested on: Respiratory Syncytial Virus; assay: microbe, parasite or virus in culture; type: cell-based; settings: human respiratory syncytial virus, MA104, read-out: CPE Inhibition EC50
[26] = MDCK, Influenza A (H1N1) Texas/36/91
[27] = MDCK, Influenza A (H3N2) Beijing/32/92
[28] = CPE Inhibition IC50 (cytotoxic)
[29] = ribavirin in saline, 75 mg/kg/day i.p. bid × 5

O=c1cc(-c2ccc(Oc3c(O)cc4oc(-c5ccc(O)cc5)cc(=O)c4c3O)cc2)oc2cc(O)cc(O)c12 [Hinokiflavone (4), hinokiflavone]
EC50 (Adenovirus Type 5 [1]): 19 µg/mL (≈ 35.3 µM) | EC50 (Influenza B Panama/45/90 [2]): 1.9 µg/mL (≈ 3.53 µM) | IC50 (in vitro [3]; CPE Inhibition IC50 (cytotoxic), Respiratory Syncytial Virus test): 2.5 µg/mL (≈ 4.64 µM) | IC50 (in vitro [3]; CPI Inhibition IC50 (cytotoxic), Parainfluenza Type 3 Virus test): 1 µg/mL (≈ 1.86 µM) | toxicity against uninfected PHA-stimulated human PBM cells (in words) (human PBM cells): high toxicity | IC50 (in vitro [4]; CPE Inhibition IC50 (50% cell inhibitory (cytotoxic) concentration), Influenza A (H1N1) test): 1.4 µg/mL (≈ 2.6 µM) | IC50 (in vitro [4]; CPE Inhibition IC50 (cytotoxic), Influenza A (H3N2) test): 1.3 µg/mL (≈ 2.41 µM) | IC50 (in vitro [4]; CPE Inhibition IC50 (cytotoxic), Influenza B test): 1.2 µg/mL (≈ 2.23 µM) | CC50 at 14 days (in vitro [5]; HCMV CPE Inhibition CC50): 2.6 µg/mL (≈ 4.83 µM) | CC50 at 3 days (in vitro [5]; HSV-1 CPE Inhibition CC50): 77.7 µg/mL (≈ 144 µM) | CC50 at 3 days (in vitro [5]; HSV-2 CPE Inhibition CC50): 77.5 µg/mL (≈ 144 µM) | CC50 at 10 days (in vitro [5]; VZV Plaque Reduction CC50): 16.8 µg/mL (≈ 31.2 µM) | IC50 (HIV-1 RT; Anti-HIV-1 RT IC50, values in parentheses or in words): 62 µM | IC50 (HIV-1 RT; HIV-1 RT IC50 (50% inhibition dose)): 65.4 µM and 62.6 µM | inhibition at 200 µg/mL (HIV-1 RT; read-out: Anti-HIV-1 RT % Inhibition at 200 μg/ml): 89% | EC50 [6, 26]: > 1 µg/mL | EC50 [7, 26]: 1.8 µg/mL (≈ 3.34 µM) | IC50 (in vitro [8]): 6 µg/mL (≈ 11.1 µM) | EC50 [9]: > 3.2 µg/mL | EC50 ([10]; MA104, Parainfluenza Type 3 Virus, read-out: CPI Inhibition EC50): > 1 µg/mL | EC50 (Adenovirus Type 5 [11]): > 10 µg/mL | HCMV SI (CC50/EC50) (HCMV; HFF Cells): <3.2 | EC50 (HCMV; Human betaherpesvirus 5, HFF, read-out: HCMV CPE Inhibition EC50): > 0.8 µg/mL | Neutral Red IC50 (cytotoxic) [12]: 7 µg/mL | HSV-1 SI (CC50/EC50) (HSV-1; HFF Cells): <3.9 | EC50 (HSV-1; Human alphaherpesvirus 1, HFF, read-out: HSV-1 CPE Inhibition EC50): > 20 µg/mL | VZV SI (CC50/EC50) (VZV; HFF Cells): <4.2 | EC50 (VZV; Human alphaherpesvirus 3, HFF, read-out: VZV Plaque Reduction EC50): > 4 µg/mL | IC50 (in vitro [13]; Influenza A (H1N1) test): 2 µg/mL (≈ 3.71 µM) | IC50 (in vitro [13]; Influenza A (H3N2) test): 2.2 µg/mL (≈ 4.09 µM) | IC50 (in vitro [13]; Influenza B test): 2 µg/mL (≈ 3.71 µM) | EC50 [14, 27]: 1.9 µg/mL (≈ 3.53 µM) | EC50 (Influenza B Panama/45/90 [15]): > 1 µg/mL | EC50 (Measles Virus [16]): < 5 µg/mL | EC50 (Hepatitis B Virus (HBV); read-out: EC50 (50% effective dose), HBV Virion, 2.2.15 cells, extracellular (virion) HBV DNA, 9 days treatment): > 100 µM | EC90 (Hepatitis B Virus (HBV); read-out: EC90 (90% effective dose), HBV Virion, 2.2.15 cells, extracellular (virion) HBV DNA, 9 days treatment): > 100 µM | HSV-2 SI (CC50/EC50) (HSV-2; HFF Cells): <319 | EC50 (HSV-2; Human alphaherpesvirus 2, HFF, read-out: HSV-2 CPE Inhibition EC50): > 20 µg/mL | EC50 (Measles Virus [17]; BSC-1, Measles Virus, read-out: CPI Inhibition EC50): < 3 µg/mL | IC50 (in vitro [18]): 9.1 µM | EC50 (HIV-1 (strain LAV-1); Human immunodeficiency virus 1, PBMC, human PBM cells infected with HIV-1 (strain LAV), read-out: Ant-HIV-1 in PBM cells EC50): 4.1 µM | Selective Index (SI) (HIV-1 (strain LAV-1); PBM cells): <1 | EC50 [19, 27]: > 3.2 µg/mL | EC50 [20]: 5 µg/mL (≈ 9.29 µM)

NC(=O)c1ncn([C@@H]2O[C@H](CO)[C@@H](O)[C@H]2O)n1 [Ribavirin, ribavirin, reference compound]
EC50 (Influenza B Panama/45/90 [2]): 0.48 µg/mL (≈ 1.97 µM) | IC50 (in vitro [3]; [28]): 120 µg/mL (≈ 491 µM) | IC50 (in vitro [3]; CPI Inhibition IC50 (cytotoxic)): 245 µg/mL (≈ 1000 µM) | IC50 (in vitro [4]; CPE Inhibition IC50 (50% cell inhibitory (cytotoxic) concentration)): 562 µg/mL (≈ 2300 µM) | IC50 (in vitro [4]; [28]): 562 µg/mL (≈ 2300 µM) | CPE Inhibition IC50 (cytotoxic) [21]: >1000 µg/mL | EC50 ([6]; H1N1, MDCK): 1.9 µg/mL (≈ 7.78 µM) | EC50 ([7]; H1N1, MDCK): 1.4 µg/mL (≈ 5.73 µM) | inhibition of the infection, in words ([22]; ribavirin 75 mg/kg/day, positive control): highly active | Infected, Treated MST [22, 29]: >21.0** days | Infected, Treated Mean SaO2 [22, 29]: 87.1** % | Infected, Treated Surv/Total [22, 29]: 10/10** | EC50 [9]: 6 µg/mL (≈ 24.6 µM) | EC50 ([10]; MA104, read-out: CPI Inhibition EC50): 25 µg/mL (≈ 102 µM) | IC50 (in vitro [23]): 150 µg/mL (≈ 614 µM) | EC50 ([14]; H3N2, MDCK): 5.7 µg/mL (≈ 23.3 µM) | EC50 (Influenza B Panama/45/90 [15]; Influenza B Panama/45/90): 1.5 µg/mL (≈ 6.14 µM) | EC50 (Measles Virus [16]): 1 µg/mL (≈ 4.09 µM) | EC50 (Measles Virus [17]; BSC-1, read-out: CPI Inhibition EC50): 3 µg/mL (≈ 12.3 µM) | EC50 ([19]; H3N2, MDCK): 4.1 µg/mL (≈ 16.8 µM) | EC50 [20]: 17 µg/mL (≈ 69.6 µM) | IC50 (in vitro [24]): 150 µg/mL (≈ 614 µM) | EC50 [25]: 12 µg/mL (≈ 49.1 µM)
